Data published in publication PMC6826616, “Topical 2′-Hydroxyflavanone for Cutaneous Melanoma” (Cancers, 2019).
Where two headings read alike, the source gives them in different places.

What was measured:
[1] = test system: SK-MEL-24 cells; assay: Western blot densitometry of whole-cell lysates, SK-MEL-24; format: cell-based, human; conditions: 48 h
Protocol: Supplemental data for Fig. 2C. Caspase 9
Numbers below of each blot represent protein 1.0 1.2 0.5 ND ND ND ND ND ND band intensity ratios to adequate controls after Procaspase 3 […]
RAL BP- 1 and apoptosis enzymes in SK-Mel-24, B16F0 17kD Active caspase 3 […]
48h. Cells were plated in complete growth medium. After overnight, cells were treated with different doses of 2HF, and PARP-1 incubated for 48h. Total cell lysates (40 µg/lane) were […]
buffer. Proteins were transferred to nitrocellulose C-terminal cleaved membrane, nonspecific binding was done in 1X clear milk, PARP~89kDa
+0.1%T20 (Invitrogen) for 1h at room temperature. All primary antibodies were from (mouse monoclonal, 1.0 0.8 0.9 1.0 0.9 ND 1.0 1.1 ND Santacruze Biotechnology (1:1000), in 1X clear milk
+0.1%T20 overnight in 40C. Secondary antibody from N-terminal cleaved
Santacruze Biotech (1:2000) for 1h at room temperature in PARP~24kDa […]
Supplemental Figure 7 Supplemental data for Fig. 5.
B16F0 SK-Mel- 24 B16F10Numbers below of each blot represent protein band intensity ratios to adequate
TNF-α Full blots are presented in next 4 figures. […]
cells after treatment with 50, 100 µM 2HF for 48h.
Raf-1 Raf-1 Cells were plated in complete growth medium. After overnight, cells were treated with different doses of 2HF, […]
loaded on 4- 12% bis-tris gel, with 1X MES gel running p-MEK-1 p-MEK-1 buffer. Proteins were transferred to nitrocellulose membrane, nonspecific binding was done in 1X clear
All primary antibodies were from (mouse monoclonal, MEKK15 MEKK15 except TNF-α (American Hamster), Santacruze
1.0 0.9 0.1 ND ND ND overnight in 40C. Secondary antibody from Santacruze Biotech (1:2000) for 1h at room temperature in 1X clear […]

[2] = test system: B16-F10 cells; assay: MTT cytotoxicity assay, B16-F10; format: cell-based; conditions: Mus musculus
Excerpt: We studied the growth-inhibitory effects of 2HF on the B16-F0 and B16-F10 murine melanoma cell lines as well as on the SK-MEL-24 human melanoma cell line. B16-F10 and SK-MEL-24 have been shown in previous studies to be highly resistant to treatment and much more invasive than B16-F0 [32]. […] The absorption value measured upon reduction of the MTT dye by functional mitochondria is an indirect measure of cell number that cannot distinguish inhibited cell proliferation from apoptotic or necrotic cell death. By counting viable (trypan-blue dye-excluding) cells using a hemacytometer, we verified that 2HF did indeed cause cell death.
Figure 1 Mouse and human melanoma cell survival following 2′-hydroxyflavanone (2HF) treatment.
The IC50 of 2HF on B16-F0, B16-F10, and SK-MEL-24 cells was determined by MTT cytotoxicity assay. Cells were harvested and Trypan Blue dye exclusion test was used to determine the number of viable cells present in a cell suspension using a hemocytometer. The cell suspension was diluted to 5 × 10^4 cells/mL with Dulbecco’s Modified Eagle’s Medium (DMEM) complete medium and 5000 cells/well were plated in 96-well plates. After 24 h incubation at 37 °C, cells were treated with 2HF concentrations ranging from 0–200 µM (8 replicates per plate). After 48 or 72 h incubation, 40 µL of MTT (5 mg/mL) solution was added. After 4 h incubation, the plate was centrifuged at 700× g for 5 min and medium was aspirated completely. Then, 50 µL DMSO was added to each well to dissolve the purple precipitate on the rocking platform for about 15 min. The absorbance was then measured at 490 nm using a 96-well microplate reader (Spectramax Plus, Molecular Devices, Inc, San Jose, CA, USA).

[3] = test system: B16-F10 cells; assay: EGF-pHrodo endocytosis, B16-F10 (microscopy); format: cell-based, mouse; conditions: Rlip-antisense, Rlip-shRNA, or 10 µM 2HF for 24 h
Protocol: Figure 3 Effects of Rlip depletion on epidermal growth factor (EGF) endocytosis of mouse melanoma cells. Representative photomicrographs of Rlip-depleted B16-F0 and B16-F10 cells showing the inhibition of EGF-pHrodo endocytosis. […] Rlip was depleted by treating cells with Rlip-antisense, Rlip-shRNA, or 10 µM 2HF for 24 h as described in Materials and Methods section 4.8. Photographs were taken at identical exposures using 200× magnification.
The effect of Rlip knockdown/depletion by shRNA, RLIP76-antisense (R508), or 2HF on endocytosis was studied in B16 melanoma cell lines. The cells were transfected with Rlip shRNA or R508 antisense and their scrambled shRNA and scrambled antisense (CAS) controls as previously described. Briefly, B16 cells were grown in DMEM medium containing 10% FBS on Nunc 4 chamber slides overnight to 70–80% confluence. For RLIP76 knockdown, pSUPER retro puro shRLIP plasmid DNA (8 µg/mL) and RLIP76-antisense (R508; 10 μg/mL final conc.) and their respective controls (scrambled shRNA and CAS) were pre-complexed with Lipofectamine 2000 reagent in Opti-MEM® reduced serum medium for transfection of the cells. Other sets of slides were treated with vehicle (Methanol) or 10 µM 2HF to inhibit Rlip expression. […] Slides were analyzed using a fluorescence microscope (Olympus America, Melville, NY, USA). […]

With `O=C1CC(c2ccccc2O)Oc2ccccc21` (stereo not drawn) [2HF, 2′-hydroxyflavanone] as the compound, how does the “Active caspase 3 band intensity ratio to control (normalized against β-Actin)” value ([1]; SK-Mel-24, 50 µM 2HF) read?
The value was 0.9.

And the “C-terminal cleaved PARP~89kDa band intensity ratio to control (normalized against β-Actin)” value ([1]; SK-Mel-24, 50 µM 2HF)?
Its value is 0.8.

What about the “Caspase 9 band intensity ratio to control (normalized against β-Actin)” value ([1]; SK-Mel-24, 50 µM 2HF) of the same compound?
The value was 1.2.

And the “N-terminal cleaved PARP~24kDa band intensity ratio to control (normalized against β-Actin)” value ([1]; SK-Mel-24, 50 µM 2HF)?
The value was 0.8.

And the “PARP-1 band intensity ratio to control (normalized against β-Actin)” value ([1]; SK-Mel-24, 50 µM 2HF)?
Its value is 0.7.

What about the “Procaspase 3 band intensity ratio to control (normalized against β-Actin)” value ([1]; SK-Mel-24, 50 µM 2HF) of the same compound?
The value was 0.8.

And the “RAL BP-1 band intensity ratio to control (normalized against β-Actin)” value ([1]; SK-Mel-24, 50 µM 2HF)?
Its value is 0.4.

What about the “Raf-1 band intensity ratio to control (normalized against β-Actin)” value ([1]; SK-Mel-24, 50 µM 2HF) of the same compound?
The value was 1.7.

What about the “TNF-α band intensity ratio to control (normalized against β-Actin)” value ([1]; SK-Mel-24, 50 µM 2HF) of the same compound?
The value was 0.4.

And the “p-PDGFR-β band intensity ratio to control (normalized against β-Actin)” value ([1]; SK-Mel-24, 50 µM 2HF)?
The value was 0.7.

What about the “Active caspase 3 band intensity ratio to control (normalized against β-Actin)” value ([1]; SK-Mel-24, 100 µM 2HF) of the same compound?
The value was 1.1.

What about the “C-terminal cleaved PARP~89kDa band intensity ratio to control (normalized against β-Actin)” value ([1]; SK-Mel-24, 100 µM 2HF) of the same compound?
The value was 0.9.

What about the “Caspase 9 band intensity ratio to control (normalized against β-Actin)” value ([1]; SK-Mel-24, 100 µM 2HF) of the same compound?
The value was 0.5.

And the “N-terminal cleaved PARP~24kDa band intensity ratio to control (normalized against β-Actin)” value ([1]; SK-Mel-24, 100 µM 2HF)?
The value was 0.4.

And the “PARP-1 band intensity ratio to control (normalized against β-Actin)” value ([1]; SK-Mel-24, 100 µM 2HF)?
The value was 0.1.

What about the “Procaspase 3 band intensity ratio to control (normalized against β-Actin)” value ([1]; SK-Mel-24, 100 µM 2HF) of the same compound?
Its value is 0.5.

What about the “RAL BP-1 band intensity ratio to control (normalized against β-Actin)” value ([1]; SK-Mel-24, 100 µM 2HF) of the same compound?
The value was 0.1.

What about the “p-PDGFR-β band intensity ratio to control (normalized against β-Actin)” value ([1]; SK-Mel-24, 100 µM 2HF) of the same compound?
The value was 0.4.

And the IC50 ([2]; MTT, 72 h, mean ±SD, n = 5, read-out: IC50 at 72 h (growth/survival))?
Its IC50 is 47 ± 6 µM.

And the IC50 ([2]; Table 1, agent alone, read-out: IC50)?
The IC50 was 42 ± 1.83 µM.

And the “EGF-pHrodo endocytosis (fluorescence microscopy)” value [3]?
The value was “completely blocked”.
